One compound from patent US20250382346A1, “NEURONAL PROMOTERS AND USES THEREOF” (priority 2023, published 2025) can be followed below.

For this test, the target named is T1, rM3Ds (Rattus norvegicus, UniProt P08483, A177S/A238G/A489L/DEL261-437/DEL441-478/E258S/I253V/I483M/INS256[…]/K178L/K182A/K255R/K484R/K486H/L173F/L482A/M480V/R171S/R176Q/R179M/S481M/T174R/T181R/T257A/Y148C).
T1 sequence (P08483 with tags, fused parts or gaps Y148C/R171S/L173F/T174R/R176Q/A177S/K178L/R179M/T181R/K182A/A238G/I253V/K255R/INS256[…]/T257A/E258S/DEL261-437/DEL441-478/M480V/S481M/L482A/I483M/K484R/K486H/A489L): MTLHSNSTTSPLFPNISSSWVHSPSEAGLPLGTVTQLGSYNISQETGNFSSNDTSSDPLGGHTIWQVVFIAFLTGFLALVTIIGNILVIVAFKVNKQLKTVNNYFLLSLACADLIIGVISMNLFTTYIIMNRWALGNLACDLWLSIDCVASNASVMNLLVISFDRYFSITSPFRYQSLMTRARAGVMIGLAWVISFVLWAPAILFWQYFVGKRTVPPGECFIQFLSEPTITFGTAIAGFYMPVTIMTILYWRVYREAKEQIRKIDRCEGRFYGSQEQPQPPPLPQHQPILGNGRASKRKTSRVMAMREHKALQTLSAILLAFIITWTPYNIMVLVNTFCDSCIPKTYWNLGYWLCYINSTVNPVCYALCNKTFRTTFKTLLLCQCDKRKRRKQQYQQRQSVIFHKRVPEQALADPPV
The test can be described thus: In vivo electrophysiological recording in caudate/putamen of anesthetized macaques, rM3Ds. Set-up: 2A-EYFP (C); expressed in transfected cells; host or cells: neurons (striatal D1-MSNs) of mice or cynomolgus macaques, transduced in vivo by nigral AAV8R12-G88P7-rM3Ds-2A-EYFP. The protocol:
• Electrophysiological recording was performed through a recording chamber while the monkey was anesthetized. Neural responses were recorded by a 16-channel linear probe (Plexon Inc, Uprobe) driven by a mechanical microdrive (Alpha Omega, FlexMT). Signals were passed through a head stage (Plexon Inc, HST/16V-G20 LN) and then split and filtered between 300 Hz and 5 kHz to identify spiking activity with an amplifier system (Plexon Inc, OmniPlex). Detected spikes were then sorted by commercially available software (Plexon Inc, Offline Sorter) for further analysis. To quantify the effect of CNO/DCZ injection, neural activity was recorded for 60 minutes following CNO/DCZ injection. The response time-course for each channel was obtained by counting the spikes within every 10-minute window and then normalizing to the maximal.
To determine the effect of CNO/DCZ injection on the direction of signal change, we performed Pearson correlation between neural responses and time using the ‘corr’ function in Matlab, which generates the correlation coefficient ‘r’ and significant level ‘p’. A neuron was considered to have “Increased” activity when r>0 and p<0.05; and considered to have “Decreased” activity when r<0 and p<0.05. Otherwise, neurons were considered to be “Unchanged” in their neural activities. The responses of all increased neurons were then averaged after being normalized by the maximal response (Crowe et al., 2014; Dai and Wang, 2018; Hirokawa et al., 2019) following CNO/DCZ injection, and then plotted as a function of time to generate the normalized population response.
To enable in-vivo verification of the strategy via an opto-tagging approach, AAV virus encoding opsin ChR2 (AAV9-EF1α-DIO-ChR2-EYFP) was injected into the striatum with simultaneous nigral infusion of a retrograde AAV encoding Cre and rM3Ds (AAV8R12-G88P7-HA-rM3Ds-2A-Cre). A total volume of 27 μl (3 μl×9 sites) and 30 μl (3 μl×10 sites) were injected in the SNr and the striatum, respectively. A recording chamber was implanted above the striatum to allow optical stimulation and electrophysiological recording.
Optogenetic verification was conducted six weeks after virus injections. A 16-channel linear probe with an embedded optic fiber (Plexon Inc., Uprobe) was used to deliver light stimulation and record neural responses. A mechanical Microdrive (FlexMT, Alpha Omega, Nazareth, Israel) was used to mount and drive the probe. A blue laser (473 nm, Changchun New Industries Tech, MBL-III-473) was used to generate light stimulation, which was controlled by a DAQ board (National Instruments, PCIe-6321) through the MonkeyLogic toolbox (NIMH version).
Light pulses of 40 Hz that last for 500 ms were used to probe neurons' responses to optical stimulation. […] Responses from these optically identified cells were grouped to generate the normalized population response as a function of time.

[1] abbreviates: monkey CM048, 38 cells, intramuscular CNO.

Molecules are shown by their SMILES.

For the compound `C[N+]1([O-])CCN(C2=Nc3cc(Cl)ccc3Nc3ccccc32)CC1` [CNO, Clozapine-N-oxide], the “cells in caudate/putamen activated (FIG. 12N)” value (38 total cells, CNO administrations, saline 20%) was 50%. Moreover, the “cells in caudate/putamen unchanged (FIG. 12N)” value (38 total cells, CNO administrations, saline 26.7%) is reported as 36.8%. Besides, the “cells in caudate/putamen inactivated (FIG. 12N)” value (38 total cells, CNO administrations, saline 53.3%) came to 13.2%. The “neuronal activity of opto-tagged retrogradely labeled D1-MSNs” value (AAV8R12-G88P7-HA-rM3Ds-2A-Cre plus AAV9-EF1α-DIO-ChR2-EYFP, intramuscular CNO, anesthetized macaques) is listed as “effectively induced an increase of neuronal activity in retrogradely labeled D1-MSNs”. Under “MPP+ lesioned macaques, CNO 36 cells, DCZ 31 cells, saline 17.9%”, the “cells in caudate/putamen activated (FIG. 15G)” value turned out to be 52.8%. Besides, where the note is “MPP+ lesioned macaques, CNO 36 cells, DCZ 31 cells, saline 33.4%”, the “cells in caudate/putamen inactivated (FIG. 15G)” value is on record as 13.9%. For the same compound, the “cells in caudate/putamen unchanged (FIG. 15G)” value (MPP+ lesioned macaques, CNO 36 cells, DCZ 31 cells, saline 48.7%) is reported as 33.3%. Under setting [1], the “cells in caudate activated (FIG. 12F)” value worked out at 65.8%, the “cells in caudate inactivated (FIG. 12F)” value worked out at 7.9% and the “cells in caudate unchanged (FIG. 12F)” value worked out at 26.3%.
